Laboratory results taken from US20070293399A1, “SUBSTITUTED DIAMINO-1,3,5-TRIAZINES, PROCESSES FOR THEIR PREPARATION AND THEIR USE AS HERBICIDES AND CROP GROWTH REGULATORS” (Bayer CropScience AG, priority 2006, published 2007).

Legend:
[1] = tested on: Stellaria media, Lolium multiflorum, Amaranthus retroflexus, Sinapis alba, Avena sativa and Setaria viridis; test: Pre-emergence herbicidal action (greenhouse pot test); type: in vivo; settings: application rate of 1 kg or less of active substance per hectare; scored visually after 3 to 4 weeks in comparison to untreated controls
Excerpt: Seeds or rhizome pieces of mono- and dicotyledonous weed plants were placed in sandy loam in plastic pots and covered with soil. The inventive compounds, which have been formulated in the form of wettable powders or emulsion concentrates, were then applied to the surface of the covering soil as an aqueous suspension or emulsion in different dosages with an application rate of from 600 to 800 l/ha of water (converted).

[2] = tested on: Sinapis alba, Echinochloa crus-galli, Lolium multiflorum, Stellaria media, Cyperus iria, Amaranthus retroflexus, Setaria viridis, Avena sativa, Lamium …; test: Post-emergence herbicidal action (greenhouse pot test); type: in vivo; settings: application rate of 1 kg and less of active substance per hectare; treated at three-leaf stage; scored visually after approx. 3 to 4 weeks in comparison to untreated controls
Protocol: Seeds or rhizome pieces of mono- and dicotyledonous weeds were placed in sandy loam in plastic pots, covered with soil and grown in a greenhouse under good growth conditions. Three weeks after the sowing, the test plants were treated at the three-leaf stage. The inventive compounds formulated as spray powders or as emulsion concentrates were sprayed onto the green plant parts in various dosages with an application rate of from 600 to 800 l/ha of water (converted). After the test plants had been left to stand in the greenhouse under optimal growth conditions for approx. 3 to 4 weeks, the action of the preparations was scored visually in comparison to untreated controls. The inventive compositions also had good post-emergence herbicidal activity against a wide spectrum of economically important gramineous and broadleaf weeds.

SMILES	herbicidal action against harmful plants in the pre-emergence method [1]	herbicidal action against harmful plants in the post-emergence method [2]
CCCCNC(=S)Nc1nc(N[C@H]2c3cc(C)ccc3C[C@@H]2C)nc([C@@H](C)F)n1 [Compound 2.132]	very good herbicidal action	very good herbicidal action
CCNC(=S)Nc1nc(N[C@H]2c3cc(C)ccc3C[C@@H]2C)nc([C@@H](C)F)n1 [Compound 2.133]	very good herbicidal action	very good herbicidal action
Cc1ccc2c(c1)[C@H](Nc1nc(NC(=S)NCCc3ccc(Cl)cc3)nc([C@@H](C)F)n1)[C@@H](C)C2 [Compound 2.134]	very good herbicidal action	very good herbicidal action
Cc1ccc2c(c1)[C@H](Nc1nc(NC(=S)NCc3ccco3)nc([C@@H](C)F)n1)[C@@H](C)C2 [Compound 2.138]	very good herbicidal action	very good herbicidal action
Cc1ccc2c(c1)[C@H](Nc1nc(NC(=S)NC3CCCCC3)nc([C@@H](C)F)n1)[C@@H](C)C2 [Compound 2.139]	very good herbicidal action	very good herbicidal action
COc1cccc(NC(=O)Nc2nc(N[C@H]3c4cc(C)ccc4C[C@@H]3C)nc([C@@H](C)F)n2)c1 [Compound 2.140]	very good herbicidal action	very good herbicidal action
CC(=O)Nc1nc(N[C@H]2c3cc(C)ccc3C[C@@H]2C)nc(C(F)F)n1 [Compound 2.149]	very good herbicidal action	very good herbicidal action
CCC(=O)Nc1nc(N[C@H]2c3cc(C)ccc3C[C@@H]2C)nc(C(F)F)n1 [Compound 2.150]	very good herbicidal action	very good herbicidal action
Cc1ccc2c(c1)[C@H](Nc1nc(NC(=O)C(C)(C)C)nc(C(F)F)n1)[C@@H](C)C2 [Compound 2.151]	very good herbicidal action	very good herbicidal action
Cc1ccc2c(c1)[C@H](Nc1nc(N=CN(C)C)nc([C@@H](C)F)n1)[C@@H](C)C2 [Compound 2.153]	very good herbicidal action	very good herbicidal action
C[C@@H](F)c1nc(N=CN(C)C)nc(N[C@@H]2CCCc3ccccc32)n1 [Compound 2.154]	very good herbicidal action	very good herbicidal action
Cc1ccc2c(c1)[C@H](Nc1ncnc(N=CN(C)C)n1)[C@@H](C)C2 [Compound 2.155]	very good herbicidal action	very good herbicidal action
CC(=Nc1nc(N[C@H]2c3cc(C)ccc3C[C@@H]2C)nc([C@@H](C)F)n1)N(C)C [Compound 2.156]	very good herbicidal action	very good herbicidal action
CC(=Nc1nc(N[C@@H]2CCCc3ccccc32)nc([C@@H](C)F)n1)N(C)C [Compound 2.159, N′-{4-[(1R)-1-Fluoroethyl]-6-[(1R)-1,2,3,4-tetrahydronaphth-1-ylamino]-1,3,5-triazin2-yl}-N,N-dimethylethanimide amide]	very good herbicidal action	very good herbicidal action
CC(=Nc1ncnc(N[C@H]2c3cc(C)ccc3C[C@@H]2C)n1)N(C)C [Compound 2.160]	very good herbicidal action	very good herbicidal action
Cc1ccc2c(c1)[C@H](Nc1nc(C)nc(N=CN(C)C)n1)[C@@H](C)C2 [Compound 2.170]	very good herbicidal action	very good herbicidal action
C[C@@H]1Cc2ccccc2[C@@H]1Nc1nc(N=CN(C)C)nc(C(F)F)n1 [Compound 2.175]	very good herbicidal action	very good herbicidal action
Cc1ccc2c(c1)[C@H](Nc1nc(N=CN(C)C)nc(C(F)F)n1)[C@H](C)C2 [Compound 2.176]	very good herbicidal action	very good herbicidal action
CC(=Nc1nc(N[C@H]2c3cc(C)ccc3C[C@H]2C)nc(C(F)F)n1)N(C)C [Compound 2.177]	very good herbicidal action	very good herbicidal action
Cc1ccc2c(c1)[C@H](Nc1nc(N=CN3CCCCC3)nc(C(F)F)n1)[C@H](C)C2 [Compound 2.181]	very good herbicidal action	very good herbicidal action
Cc1ccc2c(c1)[C@H](Nc1nc(C=O)nc(C(F)F)n1)[C@H](C)C2 [Compound 2.190]	very good herbicidal action	very good herbicidal action
CCOC(C)=Nc1nc(N[C@H]2c3cc(C)ccc3C[C@H]2C)nc(C(F)F)n1 [Compound 2.191]	very good herbicidal action	very good herbicidal action
C[C@@H](F)c1nc(C=O)nc(N[C@@H]2CCCc3ccccc32)n1 [Compound 2.193]	very good herbicidal action	very good herbicidal action
Cc1ccc2c(c1)[C@H](Nc1ncnc(C=O)n1)[C@H](C)C2 [Compound 2.194]	very good herbicidal action	very good herbicidal action
Cc1ccc2c(c1)[C@H](Nc1nc(C=O)nc([C@@H](C)F)n1)[C@H](C)C2 [Compound 2.195]	very good herbicidal action	very good herbicidal action
